Where two headings read alike, the source gives them in different places.
Columns and labels:
[1] = system: NCI-H358 cells (express KRas G12C), Phospho-ERK; assay: Cellular inhibition of KRas G12C: Phospho-ERK in NCI-H358 cells; assay type: cell-based
Method in brief: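 IC50 derived by 4-parameter fit of GAPDH-normalized pERK(Thr202/Tyr204) signal, as percent of DMSO control. Signal came from in-cell immunodetection with infrared secondaries after 3 h compound exposure of KRas G12C NCI-H358 cells at 0.5% DMSO.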

KRas G12C = KRas G12C (Homo sapiens, UniProt P01116, C118S/C51S/C80L/G12C); assay: KRas G12C Modification Assay (LCMS detection of covalent adduct); assay type: binding
Method in brief: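 Covalent modification was read by reverse-phase LC/MS of intact protein after compound exposure, each reaction stopped at its time point with 25 mM acetic acid. Unmodified-protein signal, taken as percent of total, was normalised to untreated protein and reported as POC.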

[2] = Homo sapiens, NCI-H358, 3 h, pERK(Thr202/Tyr204) normalized with GAPDH, NCI-H358 cells, 3 hours, read-out: IC50
[3] = normalized percent of control, tested at 5 μM concentration for 3 hours
[4] = Homo sapiens, pERK(Thr202/Tyr204) normalized with GAPDH, NCI-H358 cells, 3 hours, read-out: IC50

Row | SMILES | IC50 [1, 2] [nM] | POC (KRas G12C; [3]) | other results
1 | C=CC(=O)N1CCN(c2nc(OC[C@@H]3CCCN3C)nc3c2CCN(c2cccc4cnccc24)C3)CC1CC#N (stereo partly drawn) [Example 262, 2-[4-[7-(5-isoquinolyl)-2-[[(2S)-1-methylpyrrolidin-2-yl]methoxy]-6,8-dihydro-5H-1-pyrido[3,4-d]pyrimidin-4-yl]-1-prop-2-enoyl-piperazin-2-yl]acetonitrile] | > 1000 | A (“A”≤25% POC) | –
2 | C=CC(=O)N1CCN(c2nc(OC[C@@H]3CCCN3CC)nc3c2CCN(c2cc(O)cc4ccccc24)C3)CC1 [Example 197, (S)-1-(4-(2-((1-ethylpyrrolidin-2-yl)methoxy)-7-(3-hydroxynaphthalen-1-yl)-5,6,7,8-tetrahydropyrido[3,4-d]pyrimidin-4-yl)piperazin-1-yl)prop-2-en-1-one] | 0.1 to 1000 | C (“C”>50% POC) | –
3 | C=CC(=O)N1CCN(c2nc(OC[C@@H]3CCCN3C)nc3c2CCN(c2cccc(C)c2C(F)(F)F)C3)C[C@@H]1CC#N [Example 364, 2-[(2S)-4-[2-[[(2S)-1-methylpyrrolidin-2-yl]methoxy]-7-[3-methyl-2-(trifluoromethyl)phenyl]-6,8-dihydro-5H-pyrido[3,4-d]pyrimidin-4-yl]-1-prop-2-enoyl-piperazin-2-yl]acetonitrile] | 0.1 to 1000 | C (“C”>50% POC) | –
4 | C=CC(=O)N1[C@@H]2CC[C@H]1CN(c1nc(OC(C)CN(C)C)nc3c1CCN(c1cc(O)cc4ccccc14)C3)C2 (stereo partly drawn) [Example 45, 1-((1R,5S)-3-(2-((1-(dimethylamino)propan-2-yl)oxy)-7-(3-hydroxynaphthalen-1-yl)-5,6,7,8-tetrahydropyrido[3,4-d]pyrimidin-4-yl)-3,8-diazabicyclo[3.2.1]octan-8-yl)prop-2-en-1-one] | – | A (“A”≤25% POC) | IC50 [1, 4]: > 1000 nM
5 | C=CC(=O)N1CCN(c2nc(OC[C@@H]3CCCN3C)nc3c2CCN(c2ccccc2C#N)C3)C[C@@H]1CC#N [Example 325, 2-[4-[(3S)-3-(cyanomethyl)-4-prop-2-enoyl-piperazin-1-yl]-2-[[(2S)-1-methylpyrrolidin-2-yl]methoxy]-6,8-dihydro-5H-pyrido[3,4-d]pyrimidin-7-yl]benzonitrile] | > 1000 | C (“C”>50% POC) | –
6 | C=CC(=O)N1CCN(c2nc(OC[C@@H]3CCCN3C)nc3c2CCN(c2ccccc2OC(F)(F)F)C3)CC1CC#N (stereo partly drawn) [Example 211, 2-(1-acryloyl-4-(2-(((S)-1-methylpyrrolidin-2-yl)methoxy)-7-(2-(trifluoromethoxy)phenyl)-5,6,7,8-tetrahydropyrido[3,4-d]pyrimidin-4-yl)piperazin-2-yl)acetonitrile] | 0.1 to 1000 | C (“C”>50% POC) | –
7 | C=CC(=O)N1CCN(c2nc(OC[C@@H](O)CN3CCOCC3)nc3c2CCN(c2cc(O)cc4ccccc24)C3)CC1 (single isomer, unassigned) [Example 216] | > 1000 | C (“C”>50% POC) | –
8 | C=CC(=O)N1CCN(c2nc(O[C@H](C)CN3CC[C@H](OC)C3)nc3c2CCN(c2cc(O)cc4ccccc24)C3)CC1 [Example 64, 1-(4-(7-(3-hydroxynaphthalen-1-yl)-2-(((R)-1-((S)-3-methoxypyrrolidin-1-yl)propan-2-yl)oxy)-5,6,7,8-tetrahydropyrido[3,4-d]pyrimidin-4-yl)piperazin-1-yl)prop-2-en-1-one] | 0.1 to 1000 | C (“C”>50% POC) | –
9 | C=CC(=O)N1CCN(c2nc(OC[C@@H]3CCC(=O)N3)nc3c2CCN(c2cc(O)cc4ccccc24)C3)CC1 [Example 57, (S)-5-(((4-(4-acryloylpiperazin-1-yl)-7-(3-hydroxynaphthalen-1-yl)-5,6,7,8-tetrahydropyrido[3,4-d]pyrimidin-2-yl)oxy)methyl)pyrrolidin-2-one] | > 1000 | C (“C”>50% POC) | –
10 | C=CC(=O)N1CCN(c2nc(OCCN3CCC(F)C3)nc3c2CCN(c2cc(O)cc4ccccc24)C3)CC1 (centres unmarked) [Example 49, 1-(4-(2-(2-(3-fluoropyrrolidin-1-yl)ethoxy)-7-(3-hydroxynaphthalen-1-yl)-5,6,7,8-tetrahydropyrido[3,4-d]pyrimidin-4-yl)piperazin-1-yl)prop-2-en-1-one] | > 1000 | B (“B”>25% POC−≤50% POC) | –
11 | C=CC(=O)N1CCN(c2nc(OC[C@H]3CCC(=O)N3)nc3c2CCN(c2cc(O)cc4ccccc24)C3)CC1 [Example 58, (R)-5-(((4-(4-acryloylpiperazin-1-yl)-7-(3-hydroxynaphthalen-1-yl)-5,6,7,8-tetrahydropyrido[3,4-d]pyrimidin-2-yl)oxy)methyl)pyrrolidin-2-one] | > 1000 | C (“C”>50% POC) | –
12 | C=CC(=O)N1CCN(c2nc(OCCN3C[C@@H]4CC[C@H]3C4)nc3c2CCN(c2cc(O)cc4ccccc24)C3)CC1 [Example 77, 1-(4-(2-(2-((1 S,4R)-2-azabicyclo[2.2.1]heptan-2-yl)ethoxy)-7-(3-hydroxynaphthalen-1-yl)-5,6,7,8-tetrahydropyrido[3,4-d]pyrimidin-4-yl)piperazin-1-yl)prop-2-en-1-one] | 0.1 to 1000 | C (“C”>50% POC) | –
13 | C=CC(=O)N1CCN(c2nc(OC[C@@H]3CCN(C)C3)nc3c2CCN(c2c(C(F)(F)F)ccc4[nH]ncc24)C3)CC1CC#N (stereo partly drawn) [Example 313, 2-[4-[2-[[(3R)-1-methylpyrrolidin-3-yl]methoxy]-7-[5-(trifluoromethyl)-1H-indazol-4-yl]-6,8-dihydro-5H-pyrido[3,4-d]pyrimidin-4-yl]-1-prop-2-enoyl-piperazin-2-yl]acetonitrile] | – | C (“C”>50% POC) | IC50 [1, 4]: 0.1 to 1000 nM
14 | C=CC(=O)N1CCN(c2nc(OCCN(C)C)nc3c2CCN(c2cc(O)cc4ccccc24)C3)CC1C(=O)N(C)C (centres unmarked) [Example 51, 1-acryloyl-4-(2-(2-(dimethylamino)ethoxy)-7-(3-hydroxynaphthalen-1-yl)-5,6,7,8-tetrahydropyrido[3,4-d]pyrimidin-4-yl)-N,N-dimethylpiperazine-2-carboxamide] | – | A (“A”≤25% POC) | IC50 [1, 4]: > 1000 nM
15 | C=CC(=O)N1CCN(c2nc(OCCCN3C[C@H]4C[C@@H]3CO4)nc3c2CCN(c2ccccc2C(F)(F)F)C3)CC1CC#N (stereo partly drawn) [Example 280, 2-(4-(2-(3-((1R,4R)-2-oxa-5-azabicyclo[2.2.1]heptan-5-yl)propoxy)-7-(2-(trifluoromethyl)phenyl)-5,6,7,8-tetrahydropyrido[3,4-d]pyrimidin-4-yl)-1-acryloylpiperazin-2-yl)acetonitrile] | – | C (“C”>50% POC) | IC50 [1, 4]: 0.1 to 1000 nM
16 | C=CC(=O)N1CCN(c2nc(OC[C@H]3COCCN3C)nc3c2CCN(c2cccc4ccccc24)C3)CC1CC#N (stereo partly drawn) [Example 444, 2-(1-Acryloyl-4-(2-(((R)-4-methylmorpholin-3-yl)methoxy)-7-(naphthalen-1-yl)-5,6,7,8-tetrahydropyrido[3,4-d]pyrimidin-4-yl)piperazin-2-yl)acetonitrile] | – | C (“C”>50% POC) | IC50 ([1]; pERK(Thr202/Tyr204) normalized with GAPDH, NCI-H358 cells, 3 hours, read-out: IC50): > 1000 nM
17 | C=CC(=O)N1CCN(c2nc(OCCCN3CCOCC3)nc3c2CCN(c2cc(O)cc4sc(C)nc24)C3)CC1 [Example 166, 1-[4-[7-(6-hydroxy-2-methyl-1,3-benzothiazol-4-yl)-2-(3-morpholinopropoxy)-6,8-dihydro-5H-pyrido[3,4-d]pyrimidin-4-yl]piperazin-1-yl]prop-2-en-1-one] | – | – | IC50 ([1]; Homo sapiens, NCI-H358, 3 h): > 1000 nM; POC (KRas G12C; 5 µM): B (key: “A”≤25% POC; “B”>25% POC−≤50% POC; “C”>50% POC)
18 | C=CC(=O)N1CCN(c2nc(N3CCN(CCO)CC3)nc3c2CCN(c2cc(O)cc4ccccc24)C3)CC1 [Example 26, 1-(4-(2-(4-(2-hydroxyethyl)piperazin-1-yl)-7-(3-hydroxynaphthalen-1-yl)-5,6,7,8-tetrahydropyrido[3,4-d]pyrimidin-4-yl)piperazin-1-yl)prop-2-en-1-one] | > 1000 | C (“C”>50% POC) | –
19 | C=CC(=O)N1CCN(c2nc(OCCCN3CCOCC3)nc3c2CCN(c2cc(C(F)F)cc4ccccc24)C3)CC1 [Example 112, 1-(4-(7-(3-(difluoromethyl)naphthalen-1-yl)-2-(3-morpholinopropoxy)-5,6,7,8-tetrahydropyrido[3,4-d]pyrimidin-4-yl)piperazin-1-yl)prop-2-en-1-one] | – | A (“A”≤25% POC) | IC50 [1, 4]: > 1000 nM
20 | C=CC(=O)N1CCN(c2nc(O[C@H](C)CN(C)C)nc3c2CCN(c2cc(O)cc(Cl)c2C(C)C)C3)CC1 [Example 76, (R)-1-(4-(7-(3-chloro-5-hydroxy-2-isopropylphenyl)-2-((1-(dimethylamino)propan-2-yl)oxy)-5,6,7,8-tetrahydropyrido[3,4-d]pyrimidin-4-yl)piperazin-1-yl)prop-2-en-1-one] | – | C (“C”>50% POC) | IC50 [1, 4]: > 1000 nM
21 | CN(C)C/C=C/C(=O)N1CCN(c2nc(OC[C@@H]3CCCN3C)nc3c2CCN(c2cc(O)cc4ccccc24)C3)CC1 [Example 199, (S,E)-4-(dimethylamino)-1-(4-(7-(3-hydroxynaphthalen-1-yl)-2-((1-methylpyrrolidin-2-yl)methoxy)-5,6,7,8-tetrahydropyrido[3,4-d]pyrimidin-4-yl)piperazin-1-yl)but-2-en-1-one] | > 1000 | C (“C”>50% POC) | –
22 | C=CC(=O)N1CCN(c2nc(OC[C@@H]3CCCN3C)nc3c2CCN(c2cccc4cccc(C)c24)C3)C[C@@H]1CC#N [Example 359, 2-((S)-1-acryloyl-4-(7-(8-methylnaphthalen-1-yl)-2-(((S)-1-methylpyrrolidin-2-yl)methoxy)-5,6,7,8-tetrahydropyrido[3,4-d]pyrimidin-4-yl)piperazin-2-yl)acetonitrile] | 0.1 to 1000 | C (“C”>50% POC) | –

— US10125134B2 (Mirati Therapeutics, Inc., priority 2016, dated 2018)
